# Measured values taken from paper PMC6856805, “Environmental Risk Assessment for the Active Pharmaceutical Ingredient Mycophenolic Acid in European Surface Waters” (Environmental Toxicology and Chemistry, 2019).
# “And” between values parts separate entries of the source, which are not always exact repeats. Equal entries are not always repeated. Where two headings read alike, the source gives them in different places.
# How the values were obtained:
# [1] = set-up: method as in FASS 2018; conditions: OECD 209; ref FASS 2018; cited from earlier work
# [2] = Antibiotic resistance risk quotient (PEC or MEC / PNECABR)
# Procedure: Antibiotic resistance risk is assessed through comparing PECs or MECs with a PNEC for formation or maintenance of antibiotic resistance (PNECABR). There is no universally accepted or regulatory algorithm for deriving a reliable PNECABR for bacteria, so for the time being this is approximated by applying assessment factors to bacterial minimal inhibitory concentrations (MICs). […] To be fully consistent with Bengtsson‐Palme and Larsson's (2016) approach to PNECABR derivation, the authors were contacted for help; they (J. Bengtsson‐Palme, Department of Infectious Diseases, Institute of Biomedicine, The Sahlgrenska Academy, University of Gothenberg, Gothenberg, Sweden, personal communication) state that “we only use species with 10 or more MIC observations, to avoid drawing conclusions from insufficient data […] . The only species with >10 observations in the Noto et al. (1969) paper is S[taphylococcus] aureus. In addition, when the MIC1% are selected, only one MIC [J.O.Straub's italics] value is selected per species (the lowest). Finally, the uncertainty factor for low sampling numbers is calculated as: (observed lowest MIC) × (number of tested species) ÷ 41.” Both these provisional PNECABR values were derived from the MPA MICs; the lower was selected and compared with the PECs and MECs.
# This provisional PNECABR of 64 µg MPA/L can now be compared with the PECs for STPs and surface water and with the highest MECs available. […] For surface waters, all PECs including the highest, the Guadalquivir River low‐flow 99th %ile ePiE PEC, were below the PNECABR, and thus all risk quotients were ≤0.194, all refined PEC‐per‐country risk quotients were ≤0.0083, and all mean‐ and low‐flow median ePiE PEC risk quotients were ≤0.00033; finally, the highest MEC risk quotient was 0.0103. Both models and measurements imply that throughout Europe, even in the worst‐case scenario of a southern Mediterranean catchment with extremely low river flow in summer, no significant antibiotic resistance risk emerges for MPA.
# [3] = test system: Daphnia magna; test: OECD 211 chronic reproduction test; format: in vivo; conditions: GMMC
# Procedure: An OECD 211 chronic reproduction test with the cladoceran Daphnia magna was performed by ECT Oekotoxikologie with a series of concentrations of MPA in daphnid test medium plus medium-only controls over 21 days (Egeler & Chambers 2018). The test medium was exchanged every 2–3 days, the daphnids were fed with live algae (Desmodesmus subspicatus) throughout the exposure. Fresh and old medium samples were analysed by LC–MS/MS (Supplemental Information) and the time-weighted mean measured concentrations (TWMMC) for the concentrations determined. Statistical data evaluation was performed using Williams's test, Fisher's Exact test, Multiple sequentially rejective U-test after Bonferroni-Holm and Probit analysis. The endpoints in this test were survival and size (length) of the parental daphnids at the end of the test; number of young daphnids released per surviving F0 mother; any malformations or undeveloped eggs; and the intrinsic rate of reproduction (IRR), which integrates both survival and reproduction, as a measure of longer-term stability (IRR ~1), growth (IRR >1) or decline (IRR <1) of a population.
# [4] = test system: Wistar rat embryos, murine embryonic stem cells, and mouse fibroblasts; set-up: method as in Eckardt and Stahlmann 2010; conditions: mammalian systems; ref Eckardt and Stahlmann 2010; cited from earlier work
# [5] = cited from earlier work; for k photo: ref Franquet‐Griell et al. (2017a)
# [6] = n-octanol/water distribution coefficient (log DOW), shake-flask method; format: physicochemical
# Excerpt: (§1) Syntex derived many basic physicochemical properties for both MPM and MPA in the early 1990s. The results for MPA are mostly given in the present study.
# [7] = Solubility in buffered aqueous solutions; format: physicochemical; conditions: buffered aqueous solution, 25 °C, aqueous buffer, read-out: Solubility in water
# Excerpt: as §1
# [8] = Dissociation constant (pKa) by titration; format: physicochemical; conditions: 25 ± 2 °C
# Excerpt: as §1
# [9] = test system: daphnid; test: animal or person; conditions: read-out: 48‐h median effect concentration (EC50)
# [10] = Derivation of predicted no-effect concentrations (PNEC) for STPs and surface water
# Excerpt: The surface (fresh) water PNECSW was derived in 2 ways, from the lowest chronic NOEC on the one hand and from the lowest chronic 10% effect concentration (EC10) on the other, from (sub)chronic tests with fish, daphnids, green algae, and cyanobacteria (for the latter 2 the NOErC/ErC10 for growth rate [r] was used), using an assessment factor of 10 (Committee for Medicinal Products for Human Use 2015).
# [11] = test system: inosine-5'-monophosphate dehydrogenase (IMPDH); set-up: method as in Wishart et al. 2018; Royal Pharmaceutical Society 2018; conditions: ref Wishart et al. 2018; Royal Pharmaceutical Society 2018; cited from earlier work
compound,measurement,setting,value
"COc1c(C)c2c(c(O)c1CC=C(C)CCC(=O)O)C(=O)OC2 [MPA, 6‐(1,3‐dihydro‐4‐hydroxy‐6‐methoxy‐7‐methyl‐3‐oxo‐5‐isobenzofuranyl)‐4‐methyl‐4‐hexenoic acid]","3‐h EC50, respiration inhibition",[1],2213 µg/mL
same,"EC10, respiration inhibition",[1],69 µg/mL
same,"antibiotic resistance risk quotient, highest MEC",[2],0.0103
same,"antibiotic resistance risk quotients, all mean‐ and low‐flow median ePiE PEC",[2],≤ 0.00033
same,"antibiotic resistance risk quotients, all refined PEC‐per‐country",[2],≤ 0.0083
same,"antibiotic resistance risk quotient, STPs",[2]; highest STP effluent MEC 4.19 µg/L,0.065
same,"antibiotic resistance risk quotient, STPs",[2]; highest refined PECSTP 8.83 µg MPA/L,0.138
same,"antibiotic resistance risk quotients, surface waters, all PECs",[2]; including Guadalquivir low‐flow 99th %ile ePiE PEC,≤ 0.194
same,"EC10, fecundity and reproduction",[3]; 21 d,0.929 µg/mL
same,"LOEC, fecundity and reproduction",[3]; 21 d,1800 µg/L
same,"LOEC, length of parental daphnids",[3]; 21 d,1800 µg/L
same,"NOEC, fecundity and reproduction",[3]; 21 d,630 µg MPA/L
same,"NOEC, length of parental daphnids",[3]; 21 d,630 µg/L
same,"LOEC, mortality/immobility of parental daphnids and intrinsic rate of population increase",[3],> 7530 µg/L
same,overall EC10 for the daphnids,[3],0.929 µg/mL
same,overall NOEC for the daphnids,[3],630 µg MPA/L
same,"NOEC, mortality/immobility of parental daphnids and intrinsic rate of population increase",[3]; highest tested concentration,7530 µg MPA/L
same,"concentrations causing proliferation, cellular and developmental toxicity",[4],≥ 31 ng/mL
same,k photo,[5]; Solar Box artificial sunlight reactor,0.004 min^–1
same,k photo,[5]; UV‐C irradiation,0.0284 min^–1
same,UV-C photodegradation,"[5]; pH 7, 20 mg/L MPA, ref Marín‐García (2015)",negligible photodegradation
same,logD,"[6]; pH 5, pH 5, read-out: Log D OW",2.28
same,logD,"[6]; pH 5, pH 5 to 9, read-out: log D OW values",≤ 2.28
same,logD,"[6]; pH 7, pH 7, read-out: Log D OW",0.48
same,logD,"[6]; pH 9, pH 9, read-out: Log D OW",≤ -1.54
same,solubility,"[7]; pH 5, 25 ± 2 °C",45 µg/mL
same,solubility,"[7]; pH 7, 25 ± 2 °C",710 µg/mL
same,"pK a, carboxylic acid",[8],4.58
same,"pK a, phenolic",[8],8.045
same,EC50,[9],755 µg/mL
same,PNECEC10 (aquatic),"[10]; fish EC10, assessment factor of 10",0.58 µg MPA/L and 0.580 µg MPA/L
same,PNECNOEC (aquatic),"[10]; fish NOEC, assessment factor of 10",0.132 µg MPA/L
same,type of inhibition,[11],"reversible, potent, and noncompetitive inhibitor"
